Experimental data reported in DBAASP.
≈ marks a conversion by molar mass, not a printed value. Where “and” joins values, the source holds several entries; their conditions need not be identical. Equal values may be shown once. Blank lines part the entries; values can stand above or below the molecule they belong to.

Columns and labels:
Assay in all cases: ≥ marks a high value that may be exact or a test limit, other limits are often not marked, values filed in µg/mL are converted to µM
Escherichia coli UB1005 = test system: Escherichia coli UB1005
[1] = test system: Staphylococcus epidermidis C621
[2] = test system: Escherichia coli CGSC 4908
Candida albicans C627 = test system: Candida albicans C627
[3] = test system: Pseudomonas aeruginosa K799
[4] = test system: Salmonella enterica subsp. enterica serovar Typhimurium ATCC 14028s
[5] = test system: Pseudomonas aeruginosa Z61
[6] = test system: Salmonella enterica serovar typhimurium MS7953s
[7] = test system: Aeromonas salmonicida 97-4
[8] = test system: Aeromonas salmonicida 99-1
[9] = test system: Staphylococcus aureus C623
Escherichia coli DC2 = test system: Escherichia coli DC2
[10] = test system: Listeria monocytogenes NCTC 18890
[11] = test system: Listeria monocytogenes ATCC 19114
Listeria monocytogenes = test system: Listeria monocytogenes
[12] = test system: Listeria monocytogenes ATCC 19115
[13] = test system: Listeria monocytogenes ATCC 7644
[14] = test system: Lactobacillus delbrueckii subsp. bulgaricus CIDCA 331
[15] = test system: Lactobacillus delbrueckii subsp. lactis CIDCA 133
Staphylococcus aureus = test system: Staphylococcus aureus
Escherichia coli = test system: Escherichia coli
[16] = test system: Candida albicans ATCC 90029
[17] = test system: Escherichia coli ATCC 25922
[18] = test system: Staphylococcus aureus ATCC 29213
Candida albicans = test system: Candida albicans
Pseudomonas aeruginosa = test system: Pseudomonas aeruginosa
[19] = test system: Streptococcus agalactiae BNCC 185941
[20] = test system: Pseudomonas aeruginosa PAO1
[21] = test system: Lacticaseibacillus rhamnosus 8014
[22] = test system: Salmonella enterica subsp. enterica serovar Choleraesuis CVCC 503
[23] = test system: Staphylococcus aureus ATCC 43300
[24] = test system: Lacticaseibacillus rhamnosus 1.0936
[25] = test system: Escherichia coli O157:H7 CICC 21530
[26] = test system: Salmonella enterica subsp. enterica serovar Pullorum C79-13
[27] = test system: Pseudomonas aeruginosa ATCC 27853
[28] = test system: Staphylococcus epidermidis ATCC 12228
[29] = test system: Lacticaseibacillus rhamnosus 1.0911
Escherichia coli K88 = test system: Escherichia coli K88
[30] = test system: Lacticaseibacillus rhamnosus 1.9021
[31] = test system: Salmonella enterica subsp. enterica serovar Typhimurium ATCC 14028
Escherichia coli MC1061 = test system: Escherichia coli MC1061
[32] = test system: Salmonella typhimurium SL1344
Escherichia coli JJ2487 = test system: Escherichia coli JJ2487
[33] = test system: Salmonella enterica subsp. enterica serovar Enteritidis MH91989
Escherichia coli JW0013 = test system: Escherichia coli JW0013
Escherichia coli O157:H7 = test system: Escherichia coli O157:H7
Escherichia coli J2210 = test system: Escherichia coli J2210

Compound: CC[C@H](C)[C@H](NC(=O)[C@H](CC(C)C)NC(=O)CNC(=O)[C@H](Cc1cnc[nH]1)NC(=O)[C@@H](NC(=O)[C@H](Cc1c[nH]c2ccccc12)NC(=O)[C@H](CCCCN)NC(=O)CNC(=O)[C@@H](NC(=O)[C@H](Cc1cnc[nH]1)NC(=O)[C@H](Cc1cnc[nH]1)NC(=O)[C@@H](NC(=O)CNC(=O)[C@H](Cc1cnc[nH]1)NC(=O)[C@H](Cc1ccccc1)NC(=O)[C@H](CC(C)C)NC(=O)[C@H](CC(C)C)NC(=O)CNC(=O)[C@H](CC(C)C)NC(=O)[C@@H](N)Cc1ccccc1)C(C)C)C(C)C)[C@@H](C)CC)C(=O)N[C@@H](Cc1cnc[nH]1)C(=O)NCC(=O)N[C@@H](Cc1cnc[nH]1)C(=O)N[C@@H](Cc1cnc[nH]1)C(C)=O [FLGLLFHGVHHVGKWIHGLIHGHH]
MIC (Escherichia coli UB1005): 5.82 µM (≈ 16 µg/mL) | MIC [1]: 2.91 µM (≈ 7.99 µg/mL) | MIC [2]: 11.6 µM (≈ 32 µg/mL) | MIC (Candida albicans C627): 23.3 µM (≈ 64 µg/mL) | MIC [3]: 11.6 µM (≈ 32 µg/mL) | MIC [4]: 23.3 µM (≈ 64 µg/mL) | MIC [5]: 2.91 µM (≈ 7.99 µg/mL) | MIC [6]: 5.82 µM (≈ 16 µg/mL) | MIC [7]: 23.3 µM (≈ 64 µg/mL) | MIC [8]: 23.3 µM (≈ 64 µg/mL) | MIC [9]: 2.91 µM (≈ 7.99 µg/mL) | MIC (Escherichia coli DC2): 11.6 µM (≈ 32 µg/mL)

Compound: CSCC[C@H](N)C(=O)N[C@@H](CCCN=C(N)N)C(=O)NCC(=O)N[C@@H](CO)C(=O)N[C@@H](Cc1cnc[nH]1)C(=O)N[C@@H](Cc1cnc[nH]1)C(=O)N[C@@H](Cc1cnc[nH]1)C(=O)N[C@@H](Cc1cnc[nH]1)C(=O)N[C@@H](Cc1cnc[nH]1)C(=O)N[C@@H](Cc1cnc[nH]1)C(=O)NCC(=O)N[C@@H](CO)C(=O)N[C@@H](CO)C(=O)NCC(=O)N[C@@H](CCC(=O)O)C(=O)N[C@@H](CC(N)=O)C(=O)N[C@@H](CC(C)C)C(=O)N[C@@H](Cc1ccc(O)cc1)C(=O)N[C@@H](Cc1ccccc1)C(=O)N[C@@H](CCC(N)=O)C(=O)N[C@@H](CO)C(=O)N[C@@H](CC(C)C)C(=O)O [MRGSHHHHHHGSSGENLYFQSL]
MIC [10]: ≥ 1960 µM | MIC [11]: ≥ 1960 µM | MIC (Listeria monocytogenes): ≥ 1960 µM | MIC [12]: ≥ 1960 µM | MIC [13]: ≥ 1960 µM

Compound: CC[C@H](C)[C@H](NC(=O)[C@H](CCCN=C(N)N)NC(=O)[C@H](CCCN=C(N)N)NC(=O)[C@@H]1CCCN1C(=O)[C@@H]1CCCN1C(=O)[C@H](CCCN=C(N)N)NC(=O)[C@@H]1CCCN1C(=O)[C@H](CCCN=C(N)N)NC(=O)[C@@H]1CCCN1C(=O)[C@H](CCCCN)NC(=O)[C@H](Cc1ccc(O)cc1)NC(=O)[C@@H]1CCCN1C(=O)[C@H](CCCN=C(N)N)NC(=O)[C@H](CCCCN)NC(=O)[C@H](CC(=O)O)NC(=O)[C@@H](N)C(C)C)C(=O)N[C@@H](Cc1ccc(O)cc1)C(=O)N[C@@H](CC(N)=O)C(=O)N[C@@H](CCCN=C(N)N)C(N)=O [VDKRPYKPRPRPPRRIYNR]
MIC (Escherichia coli MC1061): 0.0609 µM (≈ 0.15 µg/mL) | MIC [32]: 0.158 µM (≈ 0.39 µg/mL) | MIC (Escherichia coli JJ2487): 0.158 µM (≈ 0.39 µg/mL) | MIC [33]: 0.158 µM (≈ 0.39 µg/mL) | MIC (Escherichia coli JW0013): 0.337 µM (≈ 0.83 µg/mL) | MIC (Escherichia coli O157:H7): 0.974 µM (≈ 2.4 µg/mL) | MIC (Escherichia coli J2210): 0.122 µM (≈ 0.3 µg/mL)

Second part, led by results:

MIC [14]: 25 µM (≈ 37.9 µg/mL) | MIC [15]: ≥ 50 µM
Compound: CC[C@H](C)[C@H](NC(=O)[C@H](CC(=O)O)NC(=O)[C@H](Cc1ccccc1)NC(=O)[C@H](CC(C)C)NC(=O)CN)C(=O)N[C@@H](CCCCN)C(=O)N[C@@H](CCCCN)C(=O)N[C@H](C(=O)N[C@@H](C)C(=O)N[C@@H](CO)C(=O)N[C@H](C(=O)N[C@H](C(=O)NCC(=O)NCC(=O)N[C@@H](CC(C)C)C(N)=O)[C@@H](C)CC)C(C)C)C(C)C [GLFDIKKVASVIGGL]

MIC (Staphylococcus aureus): 4.83 µM (≈ 6.25 µg/mL) | MIC (Escherichia coli): 9.66 µM (≈ 12.5 µg/mL) | MIC [16]: ≥ 154 µM | MIC [17]: 4.83 µM (≈ 6.25 µg/mL) | MIC [18]: 4.83 µM (≈ 6.25 µg/mL) | MIC (Candida albicans): > 154 µM | MIC (Pseudomonas aeruginosa): 4.83 µM (≈ 6.25 µg/mL)
Compound: CC(C)C[C@H](NC(=O)[C@H](CO)NC(=O)[C@H](Cc1cnc[nH]1)NC(=O)[C@H](CO)NC(=O)[C@H](CC(C)C)NC(=O)[C@H](CC(C)C)NC(=O)[C@@H](N)CCCCN)C(=O)N[C@@H](CC(C)C)C(=O)N[C@H](C(=O)N[C@H](C(=O)N[C@@H](CC(C)C)C(=O)N[C@@H](C)C(=O)O)[C@@H](C)O)C(C)C [KLLSHSLLVTLA]

MIC [19]: ≥ 128 µM | MIC [20]: 8 µM (≈ 11.2 µg/mL) | MIC [21]: ≥ 128 µM | MIC [23]: 16 µM (≈ 22.3 µg/mL) | MIC [24]: ≥ 128 µM | MIC [17]: 4 µM and 8 µM | MIC [25]: 8 µM (≈ 11.2 µg/mL) | MIC [18]: 16 µM (≈ 22.3 µg/mL) | MIC [26]: 2 µM (≈ 2.79 µg/mL) | MIC [27]: 4 µM (≈ 5.58 µg/mL) | MIC [28]: 128 µM (≈ 179 µg/mL) | MIC [29]: ≥ 64 µM | MIC (Escherichia coli K88): 2 µM (≈ 2.79 µg/mL) | MIC [30]: ≥ 128 µM | MIC [31]: 32 µM (≈ 44.6 µg/mL)
Compound: CC(C)C[C@H](NC(=O)CNC(=O)[C@H](CC(C)C)NC(=O)[C@H](Cc1c[nH]c2ccccc12)NC(=O)[C@H](CC(C)C)NC(=O)CNC(=O)[C@H](CC(C)C)NC(=O)[C@H](CCCN=C(N)N)NC(=O)[C@@H](N)CCCN=C(N)N)C(=O)N[C@@H](CCCN=C(N)N)C(=O)N[C@@H](CCCN=C(N)N)C(N)=O [RRLGLWLGLRR]
MIC [22]: ≥ 128 µM
